In ChEMBL document CHEMBL5376023, “The allure of targets for novel drugs” (RSC Med Chem, 2024) one finds MIC99 and IC50 data, which are given here for two compounds.

A word on the MIC99: it is an inhibitory concentration at the 99% level, which refers to growth in some studies and to a panel of isolates in others. For orientation: IC50 means the concentration that inhibits the measured activity by half.

Structures are written as SMILES. In brackets after ≈: the same amount, converted by molar mass.

The subject of assay [1] is Mycobacterium tuberculosis. The assay can be described thus: Antimycobacterial activity against Mycobacterium tuberculosis HN878 assessed as inhibition of mycobacterial growth incubated for 5 days. The format is functional. Conditions: HN878, 120 h, time 5 day.
The subject of a further assay is Cryptococcus neoformans. The assay can be described thus: […] activity against Cryptococcus neoformans assessed as inhibition of […]. The format is functional, organism-based.
A further assay has as its system Fusarium oxysporum. The assay can be described thus: Antifungal activity against Fusarium oxysporum assessed as inhibition of fungal growth. The format is functional, organism-based.
The next assay deals with Aspergillus fumigatus. The assay can be described thus: Antifungal activity against Aspergillus fumigatus ATCC 13073 strain assessed as […] growth inhibition. Type of assay: functional, organism-based.
In another assay the test system is [Candida] auris. The assay can be described thus: Antifungal activity against Candida auris assessed as inhibition of fungal growth. Conditions: Candidozyma auris. Type of assay: functional, organism-based.
The next assay deals with Aspergillus flavus. The assay can be described thus: Antifungal activity against Aspergillus flavus assessed as inhibition of fungal growth. Type of assay: functional, organism-based.
Assay [2] deals with Nakaseomyces glabratus. The assay can be described thus: Antifungal activity against Candida glabrata ATCC 90030 assessed as inhibition of microbial growth incubated for 24 hrs by broth microdilution method. The format is functional, organism-based. The settings on record: ATCC 90030, 24 h. Background: Broth dilution looks for growth in wells or tubes with falling amounts of substance.

For assay [3], the system named is Nakaseomyces glabratus. The assay can be described thus: Antifungal activity against Candida glabrata MTCC 3019 assessed as inhibition of fungal growth incubated for 24 hrs by agar well diffusion method. Type of assay: functional, organism-based. The settings on record: MTCC 3019, 24 h.
The next assay deals with Candida albicans. The assay can be described thus: Antifungal activity against Candida albicans assessed as inhibition of fungal growth. The format is functional, organism-based.
The test system of a further assay is Rhizopus arrhizus. The assay can be described thus: Antifungal activity against Rhizopus arrhizus assessed as fungal growth inhibition. Type of assay: functional, organism-based.

For the compound `Cn1cc(NC(=O)c2cc(NC(=O)c3ccc(/C=C/c4ccc(C(F)(F)F)cc4)cc3)cn2C)cc1C(=O)NCCC(=N)N`, the MIC99 in [1] is 1.56 µM (≈ 0.945 µg/mL).
With `CN(C)c1ccc(/C=C/c2ccc(C(=O)Nc3cc(C(=O)Nc4cc(C(=O)NCCC(=N)N)n(C)c4)n(C)c3)cn2)cc1`, the IC50 in the assay on Cryptococcus neoformans is 0.8 µg/mL (≈ 1.38 µM); in the assay on Fusarium oxysporum, 0.8 µg/mL (≈ 1.38 µM); in the assay with Aspergillus fumigatus it was 0.8 µg/mL (≈ 1.38 µM); in assay [Candida] auris it was 0.8 µg/mL (≈ 1.38 µM); with Aspergillus flavus, 0.8 µg/mL (≈ 1.38 µM); with Nakaseomyces glabratus [2], 0.8 µg/mL. Also, the IC50 with Nakaseomyces glabratus [3], with Candida albicans and in the assay on Rhizopus arrhizus was 0.8 µg/mL (≈ 1.38 µM) throughout.
